Data from paper PMC6582486, “Stapled EGFR peptide reduces inflammatory breast cancer and inhibits additional HER-driven models of cancer” (Journal of Translational Medicine, 2019).
Read-outs that look alike come from different tables or passages of the source. Where a SMILES comes first, the peptide text is derived from it. Bridges are numbered along the chain shown (N, C = ends). [ ]: non-standard residue; d: D form. R8 = C=CCCCCCC[C@@](C)(N)C(=O)O; S5 = C=CCCC[C@](C)(N)C(=O)O

What was measured:
[1] = system: MDA-MB-468 breast cancer cells; type: cell-based, human; settings: for increase in efficacy over unstapled EJ1: MDA-MB-468 cell viability, ratio of IC50
Excerpt: Fig. 1 Hydrocarbon stapling leads to increased EJ1 activity in comparison to HER-directed monoclonal therapies. a EJ1 sequence with PTD4 domain (underlined) corresponding to EGFR juxtamembrane domain sequence 643–663. Stabilized alpha helix (SAH) variations 1–5 beneath, with asterisks (*) indicating sites of staple. Control peptide (CP) with altered residues indicated by double underline. Stapled control (5) asterisks (*) indicate sites of staple. b Cartoon representation of EJ1 structure, with staple variation 5 highlighted. Positively charged residues indicated in blue, negatively charged residues in red. c Cartoon representation of CP structure, with staple variation highlighted. d Cell viability assay performed in MDA-MB-468 cells after 24 h comparing unstapled EJ1 versus staple variations SAH1, SAH4, and SAH5, with increasing concentrations. e Visualization of MDA-MB-468 cells untreated, treated with 10 µM EJ1, and 10 µM SAH5-EJ1 after 60 min. Scale bars represent 50 µm. f–h Cell viability assay performed in MDA-MB-468, MCF10A, or CHO cells over 3 days comparing treatment with Sapitinib (blue lines), SAH5-EJ1 (red lines), and SAH5-CP (grey lines). […] Data shown in d, f, g–i represent mean ± percent difference of assays performed in triplicate 1000–3000 cells were plated in 96-well plates (Falcon; Corning, NY) and allowed to adhere for 24–48 h prior to therapeutic introduction. Compounds were added and incubated on cells for 3 days in serum-containing media, followed by 2 h treatment with MTT (Sigma M5655) with the resulting formazan solubilized in DMSO. Absorbance was read at 540 nm by plate reader (uQuant, Bio-Tek Instruments). P-values were calculated from a one-way ANOVA.

[2] = system: luciferized murine glioma (Ink4a/ARF-/-; hEGFRvIII); test: Orthotopic EGFRvIII glioblastoma mouse model, survival; type: in vivo, nude mice; settings: SAH5-EJ1 10 µg/g IV (N = 4), control peptide N = 6
Protocol: Patient samples used were provided by the Biobank Core Facility at Barrow Neurological Institute. Samples were de-identified and conformed to the Biobank IRB protocol. Patient-derived cell lines (GB16 and GB71) were established from resected primary GBM tumor tissue. Tissue was processed using the Gentle MACS Dissociator and Tumor Tissue Dissociation kit (Miltenyi Biotec Inc.; Auburn, CA). Animal husbandry was performed according to the guidelines of St. Joseph Hospital and Medical Center and Barrow Neurological Institute under the Institutional Animal Care and Use Committee-approved protocol. Five- to six-week-old CrTac: NCr-Foxn1^nu nude mice (Taconic Biosciences; Hudson, NY) were used for in vivo orthotropic transplant of luciferized murine glioma model (Ink4a/ARF^−/−; hEGFRvIII). For orthotopic transplants, 2 μL of dissociated cells at a density of 100,000 cells/μL were injected in the right striatum, as described previously. In vivo tumor growth was measured by IVIS xenogen bioluminescence imaging (BLI) system after IP injection of 150 mg/kg Luciferin (Gold Biotechnology; St, Louis, MO) every week after 1-month post-surgery. […]
Fig. 2 SAH5-EJ1 enters cells, colocalizes with mitochondria, and survives in vivo, resulting in glioblastoma-derived cell death and glioma mouse model survival. […] H Luminescence distribution throughout organs. […]

[3] = system: Erlotinib-resistant lung adenocarcinoma PDX TM00784; test: Lung cancer PDX mouse model TM00784; type: in vivo
Excerpt: The following PDX mouse models were generated by Jackson Labs (Sacramento, CA): Breast TM01278; Grade 3 invasive ductal carcinoma, primary malignancy; EGFR inactivating R521K mutation; ERBB3 G1288A mutation in kinase domain with unknown effects on activity; increased EGFR/ERBB2/ERBB3. Lung TM00784; Grade 3 lung adenocarcinoma, primary malignancy; EGFR activating L858R mutation; increased EGFR, decreased ERBB2/ERBB3/ERBB4. All animals were maintained as outlined by University of Arizona Institutional Animal Care and Use Committee (IACUC) by the Experimental Mouse Shared Resource (EMSR).
Fig. 3 SAH5-EJ1 inhibits growth and prolongs survival in PDX models of lung cancer. a, b Cell viability assays performed in A549 or EGFR T790M mutated H1975 lung adenocarcinoma cells over 3 days comparing treatment with Sapitinib (blue lines) to SAH5-EJ1 (red lines). Solid lines represent 24 h; dashed lines represent 72 h. Data shown represent mean ± percent difference of assays performed in quadruplicate. c Reduction in tumor burden in Erlotinib-resistant lung cancer PDX mouse model TM00784 with various doses of intravenous SAH5-EJ1. Control represents water as a vehicle control. *p < 0.05 (Control vs 1 µg/g); **p < 0.01 (Control vs 1 µg/g and vs 10 µg/g). d Kaplan–Meier curve of lung PDX mouse model treated with control (blue line) or either 1 or 10 µg/g SAH5-EJ1 (green line and red line, respectively). Data shown represent mean. N = 6 for all groups

In the case of CC[C@H](C)[C@H](NC(=O)[C@H](Cc1c[nH]cn1)NC(=O)[C@H](CCCNC(=N)N)NC(=O)[C@H](CCCNC(=N)N)NC(=O)[C@H](CCCNC(=N)N)NC(=O)[C@H](CCSC)NC(=O)[C@H](Cc1ccccc1)NC(=O)[C@H](C)NC(=O)[C@H](CCCNC(=N)N)NC(=O)[C@H](C)NC(=O)[C@H](CCC(N)=O)NC(=O)[C@H](CCCNC(=N)N)NC(=O)[C@H](C)NC(=O)[C@H](C)NC(=O)[C@H](C)NC(=O)[C@H](CCCNC(=N)N)NC(=O)[C@H](C)NC(=O)[C@@H](N)Cc1ccc(O)cc1)C(=O)N[C@H](C(=O)N[C@@H](CCCNC(=N)N)C(=O)N[C@@H](CCCCN)C(=O)N[C@@H](CCCNC(=N)N)C(=O)N[C@]1(C)CCCCCCC=CCCC[C@@](C)(C(=O)N[C@@H](CCCNC(=N)N)C(=O)N[C@@H](CCC(=O)O)C(N)=O)NC(=O)[C@H](CCC(N)=O)NC(=O)[C@H](CC(C)C)NC(=O)[C@H](CC(C)C)NC(=O)[C@H](CCCNC(=N)N)NC(=O)[C@H](CCCNC(=N)N)NC(=O)[C@H](CC(C)C)NC1=O)C(C)C [SAH5-EJ1] (H-YARAAARQARAFMRRRHIVRKR[R8]LRRLLQ[S5]RE-NH2; staple 23-30), the IC50 ([1]; 24 h) is reported as 2500 nM, the cell death ([1]; MDA-MB-468, 4 µM, after 1 day) is reported as “complete cell death” and the “increase in efficacy over unstapled EJ1” value [1] is reported as “more than 7 fold”. For the same molecule, the “increase in efficacy over unstapled EJ1” value ([1]; listed as SAH-EJ1) was 7.2 fold, the “mice alive after 72 days” value [2] was 75% and the “survival relative to control-treated mice” value ([3]; 1 µg/g (low dose) IV) was 1.7 ×. The “decrease in average tumor burden” value ([3]; 1 µg/g IV, N = 6) was over 50% and the “toxicity in the model” value ([3]; 1 or 10 µg/g IV) was “no detected toxicity”.
